Tests used:
CU-ACC2 = test: area under concentration-response curve (viability) (AUC (a.u.)); higher = less active; conditions: 48 h
Method in brief: (§1)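 Luminescence from CellTiter-Glo, read after 48 h, measured three adrenocortical carcinoma cell lines treated in 1,536-well plates with library compounds at 11 concentrations. Values were normalised per plate to vehicle and empty-well controls. The AC50 and area under the curve come from fitted concentration-response curves in inhibitory or non-responding classes only.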

NCI-H295R = test: as above; conditions: 48 h
Method in brief: as §1

Row | SMILES | area under concentration-response curve (CU-ACC2) | area under concentration-response curve (NCI-H295R)
1 | NNC(=O)c1ccncc1 | 500 | 554
2 | CC1CC2=CC=CC=C2N1C(=O)C\C3=N\C(=O)\C=C(/N3)N4CCOCC4 (stereo unspecified) | 579 | 548
3 | COc1ccc2[nH]c([S+]([O-])Cc3ncc(C)c(OC)c3C)nc2c1 (stereo unspecified) | 624 | 576
4 | CCC(c1ccc(O)cc1)C(CC)c1ccc(O)cc1 (stereo unspecified) | 656 | 607
5 | C[C@@H](O)[C@@H]1NC(=O)[C@H](CCCCN)NC(=O)[C@@H](Cc2c[nH]c3ccccc23)NC(=O)[C@H](Cc2ccccc2)NC(=O)[C@@H](NC(=O)[C@H](N)Cc2ccccc2)CSSC[C@@H](C(=O)N[C@H](CO)[C@@H](C)O)NC1=O | 648 | 612
6 | CC[C@H](NC1=C2[NH]C=NC2=NC=N1)/C3=C(/C(=O)C4=CC=CC=C4O3)C5=CC=CC(=C5)F | 432 | 488
7 | O=C(O)c1cnn(-c2nc3cc(Cl)c(OC(F)(F)F)cc3[nH]2)c1 | 605 | 548
8 | Cn1cnc(-c2cc3nccc(Oc4ccc(NC(=S)NC(=O)Cc5ccccc5)cc4F)c3s2)c1 | 359 | 412
9 | CN(C(Cc1ccc(OS(=O)(=O)c2cccc3cnccc23)cc1)C(=O)N1CCN(c2ccccc2)CC1)S(=O)(=O)c1cccc2cnccc12 (stereo unspecified) | 627 | 576
10 | OC(=O)C/1=C/C(=O)NC(=O)N1 | 530 | 529
11 | NC(=O)c1cccnc1 | 608 | 569
12 | Cc1cc(-c2cc(OC(=O)c3ccccc3)ccc2Cl)cc2nnc(Nc3ccc(OCCN4CCCC4)cc3)nc12 | 664 | 612
13 | CCc1ccc2nc(Nc3cc(Cc4ccccc4)nc(N[C@H]4CC[C@H](O)CC4)n3)sc2c1 | 620 | 580
14 | CC[C@]12CC[C@H]3[C@@H](CCC/4=C/C(=O)CC[C@H]34)[C@@H]1\C=C/[C@@]2(O)C#C | 623 | 602
15 | CC[C@H](NC(=O)[C@H](C)NC)C(=O)N1C[C@@H](O)C[C@H]1Cc1c(-c2[nH]c3cc(F)ccc3c2C[C@@H]2C[C@H](O)CN2C(=O)[C@H](CC)NC(=O)[C@H](C)NC)[nH]c2cc(F)ccc12 | 602 | 610
16 | Cc1cnc(-c2ccccc2C(C)C)nc1NCc1ccc(-n2ccnn2)cc1 | 614 | 563
17 | CN1CCN(c2ccc([N+](=O)[O-])c3no[n+]([O-])c23)CC1 | 630 | 583
18 | CC/1=N/C2=CC=CC(=C2C(=O)N1C3CCC(=O)NC3=O)N (stereo unspecified) | 635 | 575
19 | CN1C(=O)COc2c(C(=O)NC3CN4CCC3CC4)cc(Cl)cc21 (stereo unspecified) | 550 | 533
20 | NCCOc1cc(C(=O)Nc2cc(OCCN)c3ccccc3n2)nc(C(=O)Nc2cc(OCCN)c3ccccc3n2)c1 | 454 | 507
21 | CCC1(c2ccccc2)C(=O)NCNC1=O | 566 | 521
22 | O=C(NC[C@H](O)CN1CCc2ccccc2C1)c1cc(NC2COC2)ncn1 | 367 | 429

Row | SMILES | area under concentration-response curve (CU-ACC2) | area under concentration-response curve (NCI-H295R)
23 | Cc1c(-c2c(-c3ccc(F)o3)sc3ncnc(O[C@@H](Cc4ccccc4OCc4ccnn4CC(F)(F)F)C(=O)O)c23)ccc(OCCN2CCN(C)CC2)c1Cl | 600 | 529
24 | CC[C@@](C)(Nc1ccnc(-c2c[nH]c3ncccc23)n1)C(=O)NCC(F)(F)F | 589 | 539
25 | CC/1=C/2C[C@H]3C(=C)CCC[C@]3(C)/C=C2OC1=O | 593 | 524
26 | CCc1cccc(CC)c1NC(=O)N1Cc2[nH]nc(NC(=O)c3ccc(N4CCN(C)CC4)cc3)c2C1 | 614 | 597
27 | CNC(=O)c1ccc2cc(C3(O)CCn4cncc43)ccc2c1 (stereo unspecified) | 599 | 556
28 | CC(=O)Oc1ccccc1C(=O)Nc1ncc([N+](=O)[O-])s1 | 634 | 590
29 | NC[C@H](O)c1ccc(O)c(O)c1 | 636 | 599
30 | Cc1cc(N2CCOCC2)ccc1Nc1nc(NC2CCCCC2)c2nc[nH]c2n1 | 587 | 539
31 | NC(=O)C/1=C(O)/[C@]2(O)[C@@H](C[C@@H]\3CC4=C(C(=CC=C4)O)\C(=C3C2=O)O)CC1=O | 640 | 586
32 | O=NN(CCCl)C(=O)NC1CCCCC1 | 503 | 538
33 | C/C(NNC(=O)c1cccc([S+](=O)([O-])N2CCOCC2)c1)=C1\C=C(Cl)C=CC1=O | 585 | 545
34 | CC[S+]([O-])(=O)N1CCC(CC1)C(C)[N]2C(=C(C(=O)NC\C3=C(OC)\C=C(\C)NC3=O)C4=C2C=CC=C4)C (stereo unspecified) | 562 | 511
35 | C/C(=N\NC(=O)c1cccc([S+](=O)([O-])N2CCOCC2)c1)c1cc(Cl)ccc1O | 640 | 597
36 | O=C(NC[C@H]1CN(c2ccc(N3CCOCC3=O)cc2)C(=O)O1)c1ccc(Cl)s1 | 605 | 557
37 | CC1=C(C=CC=C1)N2/N=C(\C=C/C2=O)C3=C4NC[C@@H](CO)C[N]4N=C3C5=CC=C(F)C=C5 | 422 | 435
38 | O=C(COCC(=O)N1CCN(C(c2ccccc2)c2ccccc2)CC1)Nc1ccc(Cl)cc1C(=O)O | 529 | 538
39 | C[C@]12CCC\3=C\4CCC(=O)\C=C4CC[C@H]3[C@@H]1CC[C@@]2(O)CC#N | 649 | 606
40 | CC[C@H](NC1=C2N=C[NH]C2=NC=N1)C/3=N/C4=C(C(=CC=C4)F)C(=O)N3C5=CC=CC=C5 | 582 | 536
41 | C#Cc1cccc(Nc2ncnc3cc(OCCOC)c(OCCOC)cc23)c1 | 623 | 550
42 | C[C@]12CCC3c4ccc(O)cc4CCC3C1CCC2=O (stereo partly specified) | 565 | 508
43 | O=C1c2c(O)cc(O)cc2O[C@H](c2ccc(O)c(O)c2)[C@H]1O | 583 | 539

— the supplement of paper PMC10949913
